Several values for one entry are separate records, joined by “and”; a condition that tells them apart may be missing. Equal values may be shown once.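 48-hour exposure; five concentrations; linearly interpolated endpoints. GI50 = concentration required for 50% inhibition of growth. Definition used: TGI = concentration required for complete inhibition of growth.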
How the values were obtained:
Assay in all cases: NCI-60 cell line screen, 48 h
BT-549 breast = tested on: BT-549 breast
HCC-2998 colon = tested on: HCC-2998 colon
HCT-116 colon = tested on: HCT-116 colon
HOP-92 NSCLC = tested on: HOP-92 NSCLC
HT29 colon = tested on: HT29 colon
MALME-3M melanoma = tested on: MALME-3M melanoma
OVCAR-5 ovarian = tested on: OVCAR-5 ovarian
PC-3 prostate = tested on: PC-3 prostate
SF-539 CNS = tested on: SF-539 CNS
SK-MEL-28 melanoma = tested on: SK-MEL-28 melanoma

Structure (SMILES): Cc1ccc2sc3c(NCCCNCCO)nc4ccccc4c3c(=O)c2c1
- GI50 (BT-549 breast): 1.54 µM
- TGI (BT-549 breast): 3.02 µM
- GI50 (HCC-2998 colon): 1.64 µM
- TGI (HCC-2998 colon): 3.32 µM
- GI50 (HCT-116 colon): 1.41 µM
- TGI (HCT-116 colon): 2.73 µM
- GI50 (HOP-92 NSCLC): 1.28 µM
- TGI (HOP-92 NSCLC): 3.78 µM
- GI50 (HT29 colon): 1.67 µM
- TGI (HT29 colon): 3.36 µM
- GI50 (MALME-3M melanoma): 1.69 µM
- TGI (MALME-3M melanoma): 3.18 µM
- GI50 (OVCAR-5 ovarian): 1.62 µM
- TGI (OVCAR-5 ovarian): 3.16 µM
- GI50 (PC-3 prostate): 1.38 µM
- TGI (PC-3 prostate): 2.87 µM
- GI50 (SF-539 CNS): 1.68 µM
- TGI (SF-539 CNS): 3.08 µM
- GI50 (SK-MEL-28 melanoma): 1.8 µM
- TGI (SK-MEL-28 melanoma): 3.36 µM

Structure (SMILES): CNC1C(O)CC(OC2C/C=C(\C)C/C(C)=C/C=C/CCC(C)CNC(=O)/C=C/C=C/C2C)OC1C (stereo not drawn)
- TGI (BT-549 breast): 2.58 µM
- TGI (HCC-2998 colon): 1.42 µM
- TGI (HCT-116 colon): 0.324 µM
- TGI (HOP-92 NSCLC): 2.11 µM
- TGI (HT29 colon): 0.504 µM
- TGI (MALME-3M melanoma): 3 µM
- TGI (OVCAR-5 ovarian): 2.53 µM
- TGI (PC-3 prostate): 2.07 µM
- TGI (SF-539 CNS): 3.14 µM
- TGI (SK-MEL-28 melanoma): 2.97 µM

Structure (SMILES): COC(=O)C#Cc1ccc([N+](=O)[O-])cc1
- TGI (BT-549 breast): 3.34 µM
- TGI (HCC-2998 colon): 4.32 µM
- TGI (HCT-116 colon): 3.46 µM
- TGI (HOP-92 NSCLC): 4.11 µM
- TGI (HT29 colon): 3.23 µM
- TGI (MALME-3M melanoma): 4.41 µM
- TGI (OVCAR-5 ovarian): 4.34 µM
- TGI (PC-3 prostate): 13.1 µM
- TGI (SF-539 CNS): 4.08 µM
- TGI (SK-MEL-28 melanoma): 4.13 µM

Structure (SMILES): Cn1cnc2c(NCc3ccccc3)nc(NCCO)nc21
- GI50 (BT-549 breast): 147 µM
- TGI (BT-549 breast): > 454 µM
- GI50 (HCC-2998 colon): 115 µM
- TGI (HCC-2998 colon): 356 µM
- GI50 (HCT-116 colon): 49.3 µM
- TGI (HCT-116 colon): > 96.5 µM and 321 µM
- GI50 (HOP-92 NSCLC): 138 µM
- TGI (HOP-92 NSCLC): > 90.2 µM and 375 µM
- GI50 (HT29 colon): 83.6 µM
- TGI (HT29 colon): 336 µM
- TGI (MALME-3M melanoma): 241 µM
- TGI (OVCAR-5 ovarian): > 217 µM
- GI50 (PC-3 prostate): 41.4 µM
- TGI (PC-3 prostate): 283 µM
- GI50 (SF-539 CNS): 36.7 µM
- TGI (SF-539 CNS): > 90 µM and 92.7 µM
- GI50 (SK-MEL-28 melanoma): 88.7 µM
- TGI (SK-MEL-28 melanoma): 280 µM

Structure (SMILES): Cc1ccc(S(=O)(=O)n2cc(C(=O)C(=O)Nc3ccncc3)c3ccccc32)cc1
- GI50 (BT-549 breast): 3.62 µM
- TGI (BT-549 breast): > 100 µM
- GI50 (HCC-2998 colon): 4.25 µM
- TGI (HCC-2998 colon): > 100 µM
- GI50 (HCT-116 colon): 0.465 µM
- TGI (HCT-116 colon): 23.1 µM
- GI50 (HOP-92 NSCLC): 0.644 µM
- TGI (HOP-92 NSCLC): 7.01 µM
- GI50 (HT29 colon): 0.464 µM
- TGI (HT29 colon): 12.1 µM
- GI50 (MALME-3M melanoma): 43 µM
- TGI (MALME-3M melanoma): > 100 µM
- GI50 (OVCAR-5 ovarian): 8.19 µM
- TGI (OVCAR-5 ovarian): > 100 µM
- GI50 (PC-3 prostate): 1.6 µM
- TGI (PC-3 prostate): > 100 µM
- GI50 (SF-539 CNS): 1.56 µM
- TGI (SF-539 CNS): 6.84 µM
- GI50 (SK-MEL-28 melanoma): 4.17 µM
- TGI (SK-MEL-28 melanoma): > 100 µM

Structure (SMILES): COC(=O)Nc1nc2ccc(Oc3ccc(NC(=O)Nc4cccc(Cl)c4)cc3)cc2[nH]1
- GI50 (BT-549 breast): 5.87 µM
- TGI (BT-549 breast): > 21.8 µM
- GI50 (HCC-2998 colon): 7.98 µM
- TGI (HCC-2998 colon): > 25 µM
- GI50 (HCT-116 colon): 1.09 µM
- TGI (HCT-116 colon): 5.29 µM
- GI50 (HOP-92 NSCLC): 0.853 µM
- TGI (HOP-92 NSCLC): 5.47 µM
- GI50 (HT29 colon): 0.682 µM
- TGI (HT29 colon): 3.48 µM
- GI50 (MALME-3M melanoma): 0.564 µM
- TGI (MALME-3M melanoma): 7.95 µM
- GI50 (OVCAR-5 ovarian): 4.04 µM
- TGI (OVCAR-5 ovarian): > 25 µM
- GI50 (PC-3 prostate): 1 µM
- TGI (PC-3 prostate): 7.1 µM
- GI50 (SF-539 CNS): 0.658 µM
- TGI (SF-539 CNS): 6.85 µM
- GI50 (SK-MEL-28 melanoma): 1.84 µM
- TGI (SK-MEL-28 melanoma): 7.41 µM

Structure (SMILES): [N-]=[N+]=CC(=O)OCC(N)C(=O)O (stereo not drawn)
- GI50 (BT-549 breast): 16.7 µM
- TGI (BT-549 breast): > 100 µM
- GI50 (HCC-2998 colon): 0.556 µM
- TGI (HCC-2998 colon): > 100 µM
- GI50 (HCT-116 colon): 0.448 µM
- TGI (HCT-116 colon): > 100 µM
- GI50 (HOP-92 NSCLC): > 100 µM
- TGI (HOP-92 NSCLC): > 100 µM
- GI50 (HT29 colon): 0.277 µM
- TGI (HT29 colon): > 100 µM
- GI50 (MALME-3M melanoma): 6.56 µM
- TGI (MALME-3M melanoma): > 100 µM
- GI50 (OVCAR-5 ovarian): 0.971 µM
- TGI (OVCAR-5 ovarian): > 100 µM
- GI50 (PC-3 prostate): 2.42 µM
- TGI (PC-3 prostate): > 100 µM
- GI50 (SF-539 CNS): 0.64 µM
- TGI (SF-539 CNS): > 100 µM
- GI50 (SK-MEL-28 melanoma): 2.94 µM
- TGI (SK-MEL-28 melanoma): > 100 µM

Structure (SMILES): CC/C(=C(\CC)c1ccc(OCCN(CC)CC)cc1)c1ccc(OCCN(CC)CC)cc1
- GI50 (BT-549 breast): 4.55 µM
- TGI (BT-549 breast): 13.9 µM
- GI50 (HCC-2998 colon): 5.57 µM
- TGI (HCC-2998 colon): 18.9 µM
- GI50 (HCT-116 colon): 1.03 µM
- TGI (HCT-116 colon): 6.25 µM
- GI50 (HOP-92 NSCLC): 0.879 µM
- TGI (HOP-92 NSCLC): 4.72 µM
- GI50 (HT29 colon): 0.0759 µM
- TGI (HT29 colon): 3.78 µM
- GI50 (MALME-3M melanoma): 1.81 µM
- TGI (MALME-3M melanoma): 5.87 µM
- GI50 (OVCAR-5 ovarian): 3.96 µM
- TGI (OVCAR-5 ovarian): 17.7 µM
- GI50 (PC-3 prostate): 3.25 µM
- TGI (PC-3 prostate): 19.5 µM
- GI50 (SF-539 CNS): 1.29 µM
- TGI (SF-539 CNS): 3.85 µM
- GI50 (SK-MEL-28 melanoma): 1.67 µM
- TGI (SK-MEL-28 melanoma): 3.37 µM

Structure (SMILES): O=C(O)c1cccc(CC(Br)C(=O)O)c1 (stereo not drawn)
- TGI (BT-549 breast): > 100 µM
- TGI (HCC-2998 colon): > 100 µM
- TGI (HCT-116 colon): > 100 µM
- TGI (HOP-92 NSCLC): > 100 µM
- TGI (HT29 colon): > 100 µM
- TGI (MALME-3M melanoma): > 100 µM
- TGI (OVCAR-5 ovarian): > 100 µM
- TGI (PC-3 prostate): > 100 µM
- TGI (SF-539 CNS): > 100 µM
- TGI (SK-MEL-28 melanoma): > 100 µM

Structure (SMILES): Nc1nccc(Nc2ccc(S(N)(=O)=O)cc2)n1
- TGI (BT-549 breast): > 100 µM
- TGI (HCC-2998 colon): > 100 µM
- TGI (HCT-116 colon): > 100 µM
- TGI (HOP-92 NSCLC): > 100 µM
- TGI (HT29 colon): > 100 µM
- TGI (MALME-3M melanoma): > 100 µM
- TGI (OVCAR-5 ovarian): > 100 µM
- TGI (PC-3 prostate): > 100 µM
- TGI (SF-539 CNS): > 100 µM
- TGI (SK-MEL-28 melanoma): > 100 µM

Structure (SMILES): Cc1cccc(N=C2c3cc([N+](=O)[O-])ccc3-c3c2cc([N+](=O)[O-])cc3[N+](=O)[O-])c1
- GI50 (BT-549 breast): 3.45 µM
- TGI (BT-549 breast): 11.2 µM
- GI50 (HCC-2998 colon): 6.45 µM
- TGI (HCC-2998 colon): 18.7 µM
- GI50 (HCT-116 colon): 1.67 µM
- TGI (HCT-116 colon): 3.37 µM
- GI50 (HOP-92 NSCLC): 2.47 µM
- TGI (HOP-92 NSCLC): 7.17 µM
- GI50 (HT29 colon): 4.11 µM
- TGI (HT29 colon): 27.6 µM
- GI50 (MALME-3M melanoma): 4.82 µM
- TGI (MALME-3M melanoma): 21.2 µM
- GI50 (OVCAR-5 ovarian): 18.3 µM
- TGI (OVCAR-5 ovarian): 40.2 µM
- GI50 (PC-3 prostate): 5.02 µM
- TGI (PC-3 prostate): 21.6 µM
- GI50 (SF-539 CNS): 17 µM
- TGI (SF-539 CNS): 37.8 µM
- GI50 (SK-MEL-28 melanoma): 13.3 µM
- TGI (SK-MEL-28 melanoma): 31.3 µM

Reference: PubChem BioAssay (NCI)
